{
  "source": "patent US6803466B1",
  "about": "“HIV/FIV protease inhibitors having a small P3 residue” (The Scripps Research Institute, priority 1997, dated 2004)",
  "key": {"[1]": {"system": "HIV WEAU-1.6 in MT-2 cells", "assay": "microbe, parasite or virus in culture", "format": "cell-based", "protocol": "(§1) The results from tissue culture assays against SIV (FIG. 14) and HIV (FIG. 14) were equally encouraging. […] The effectiveness of compound 1200 against HIV was measured by determining the percentage of viable cells remaining in culture over time in the presence and absence of drug (FIG. 14). In the control, HIV caused formation of multinucleated syncytia and 100% cell death by 9 days post infection. However, the cells cultured with 1 μg/ml (1.1 μM) or 5 μg/ml (5.5 μM) of inhibitor 1200 remained 100% viable after 1 month, identical to results obtained in the absence of virus infection. To test for virus in these cultures, supernatants were removed and added to 1×10^5 uninfected MT-2 cells after a 1:5 dilution with fresh CM. […] In contrast, when 2×10^5 infected MT-2 cells that had been treated with compound 1200 for two weeks were removed and replated in fresh medium with or without compound 1200 only MT-2 cells cultured in the absence of compound 1200 were dead within 4 days (data not shown). […] Cultures are being carried continuously in the presence of compound 12 to look for resistance development. Tests are also underway to determine the level of efficacy of the compound against a defined panel of drug-resistant HIVs.\nWEAU-1.6, a kind gift of George Shaw, University of Alabama (^18), a CXCR4 utilizing isolate, was used for all studies. 2×10^5 MT-2 cells in 0.1 ml were infected for 4 hr, at 37° C., using WEAU-1.6 at 25 TCID50. Before establishing cultures for inhibitor assessment infected cells were washed 3 times with complete medium (CM), which was RPMI-1640 supplemented with 10% FBS, […], 200 mM L-glutamine, and […] of gentamicin sulfate, to remove any unbound virus. For inhibitor assessment cultures were established in duplicate or triplicate using 5×10^4 infected cells and 1×10^5 uninfected cells in a total volume of 1.5 mls in Costar 6 well-plates. Once cultures were established they were split 1:4 every 3 days, and given fresh CM. Compound 12 (from a 10 mg/ml stock in DMSO) was added at […] at initiation of the culture and after each split. For testiing of the antiviral efficacy of compound 1200 in MT-2 were assessed every day using a Olympus (model) inverted microscope equipped with phase contrast objectives. When MT-2 cells are infected with WEAU-1.6 they form syncytia and die with in 24 hours, events easily discernible visually. A total of 200 cells were counted in each well, and when syncytia were noted, cells were removed and tested for viability by using trypan-blue. Results are expressed as the average of viable cells."}, "feline T-cells": {"system": "feline T-cells", "assay": "Toxicity to feline T-cells in culture", "format": "cell-based", "protocol": "For FIV, the assays were performed in FIV-infected feline T-cells which were cultured in the presence of compound 1200 at different concentrations over the course of 1 month. Each data in FIG. 14 represents the amount of pelletable FIV reverse transcriptase in the culture supernatant. […] Furthermore, this inhibitor was not toxic to feline T-cells. After one month, the drug-treated cultures were split and replated with and without compound 1200.\nThe lymphocytic cell line 104-C1 (provided by C. Grant) was used as the target for infection. Cells were cultured in RPMI-1640 media supplemented with 10% FBS, 200 μM L-Glutamine, 1×MEM-Vitamins, 100 μM Sodium Pyruvate, 1×Non-Essential Amino Acids, 5.5×10−5M b-ME, 50 μg/ml Gentamicin, 50 U/ml human recombinant Interleukin-2 (provided by Hoffmann-LaRoche) and 7.5 μg/ml Concanavalin-A. For inhibitor assessment, 5×10^6 cells were infected with FIV-PPR (4×105 RT units) in 1 mL culture for 2 hr at 37° C. No virus and virus only controls were incubated in a similar manner. The cells were then washed with Hanks-buffered saline solution (HBSS) and resuspended in 10 ml of complete medium. […] The culture supernatants were monitored for the presence of pelletable reverse transcriptase activity at weekly intervals, as follows. […] The paper was then dried and counted on a scintillation counter."}, "uninfected 174×CEM cells": {"system": "uninfected 174×CEM cells", "assay": "Effect on uninfected cells of the SIV assay", "format": "cell-based", "conditions": "10, 1.0, 0.1 and 0.001 μg/ml", "protocol": "Cells were acutely infected with approximately 400 TCID50 units of SIVmac251 for 90 min at 37° C. The cells were collected by centrifugation, washed twice with medium to remove free virus, then plated in 0.45 ml medium in 48-well tissue culture plates, at 10^5 cells per well. Compound 1200, prepared as a 10 mg/ml stock in DMSO, was then added to final concentrations of 10, 1.0, 0.1, and 0.001 μg/ml final concentrations, in triplicate cultures. Triplicate control cultures received medium only."}, "[2]": {"system": "SIVmac251 in 174×CEM cells", "assay": "Ex vivo inhibitor analysis against SIV, p27 antigen ELISA", "format": "cell-based", "protocol": "as §1, with “HIVs. […]” for “HIVs.”"}, "wild type HIV PR": {"system": "wild type HIV PR", "assay": "Cell culture IC90, wild type", "format": "cell-based", "conditions": "Human immunodeficiency virus 1, read-out: IC90 against the wild type HIV PR"}, "82F/84V mutant": {"system": "82F/84V mutant", "assay": "Cell culture IC90, 82F/84V mutant", "format": "cell-based, HIV", "conditions": "Human immunodeficiency virus 1, read-out: IC90 against the 82F/84V mutant"}, "[3]": {"conditions": "Human immunodeficiency virus 1, MT2, read-out: viable cells remaining in culture"}},
  "data": [
    {"smiles": "CC(C)[C@H](NC(=O)[C@H](C)NC(=O)OCc1ccccc1)C(=O)N[C@@H](Cc1ccccc1)[C@@H](O)[C@H](O)[C@H](Cc1ccccc1)NC(=O)[C@@H](NC(=O)[C@H](C)NC(=O)OCc1ccccc1)C(C)C", "note": "[Compound 1b]", "values": [
      {"measurement": "inhibition of HIV infection in tissue culture (in words)", "setting": "[1]", "value": "strongly inhibits"},
      {"measurement": "free virus in supernatants, transfer to uninfected MT-2 cells", "setting": "[1]; 1:5 dilution, after 3 weeks", "value": "remained uninfected"},
      {"measurement": "viability at 1.1 µM", "setting": "[1]; [3]", "value": 100, "unit": "%"},
      {"measurement": "viability at 5.5 µM", "setting": "[1]; [3]", "value": 100, "unit": "%"},
      {"measurement": "toxicity to cells", "setting": "feline T-cells", "value": "not toxic"},
      {"measurement": "effects on uninfected cells", "setting": "uninfected 174×CEM cells", "value": "no effects noted"},
      {"measurement": "inhibition of SIV infection in tissue culture (in words)", "setting": "[2]", "value": "strongly inhibits"},
      {"measurement": "SIV virus expression, p27 antigen in culture supernatant", "setting": "[2]; 1 μg/ml", "value": "near background"},
      {"measurement": "IC90", "setting": "wild type HIV PR", "value": 100, "unit": "nM"},
      {"measurement": "IC90", "setting": "82F/84V mutant", "value": 900, "unit": "nM"}
    ]}
  ]
}
